Measurements reported in patent US8143374B2, “Polypeptide derivatives of parathyroid hormone (PTH)” (The General Hospital Corporation, priority 2006, dated 2012).
Where a SMILES comes first, the peptide text is derived from it. [ ]: non-standard residue; d: D form. Cha = N[C@@H](CC1CCCCC1)C(=O)O

How the values were obtained:
[1] = Circular dichroism spectroscopy, helical residues per peptide chain; assay type: physicochemical; conditions: [Ala1,Arg19]hPTH(1-31)NH2 analogs; calculated from [θ]222
Method: Circular Dichroism—CD spectra were obtained on a JASCO J-600 spectropolarimeter at 20° C. Four spectra were averaged and the data smoothed by the JASCO software. The instrument was calibrated with ammonium (+)-10-camphorsulfonate. Peptide concentrations were verified from the absorption at 280 nm, using an extinction coefficient of 5700 M^−1 for the single tryptophan. Data are expressed as the number of helical residues per peptide chain, as calculated from −[θ]222×30/28,000, where [θ]222 is the mean residue elipticity ([θ]) at 222 nm, as was described previously (Barbier, J. R., et al. (2005) J Biol Chem. 280:23771-23777).

[2] = molecular target: T1, PTHR-delNt (Homo sapiens, UniProt Q03431, DEL24-181); assay: Competition binding in COS-7 cell membranes with 125I-[Aib1,3,M]PTH(1-15)NH2 tracer; conditions: for IC50: [Ala1,Arg19]hPTH(1-31)NH2 analogs, COS-7 membranes cotransfected with negative-dominant Gαs, read-out: PTHR-delNT (COS-7) IC50
T1 construct: expressed in transfected cells; host or cells: COS-7 cells, transient co-transfection; membranes prepared
T1 sequence (Q03431 with tags, fused parts or gaps DEL24-181): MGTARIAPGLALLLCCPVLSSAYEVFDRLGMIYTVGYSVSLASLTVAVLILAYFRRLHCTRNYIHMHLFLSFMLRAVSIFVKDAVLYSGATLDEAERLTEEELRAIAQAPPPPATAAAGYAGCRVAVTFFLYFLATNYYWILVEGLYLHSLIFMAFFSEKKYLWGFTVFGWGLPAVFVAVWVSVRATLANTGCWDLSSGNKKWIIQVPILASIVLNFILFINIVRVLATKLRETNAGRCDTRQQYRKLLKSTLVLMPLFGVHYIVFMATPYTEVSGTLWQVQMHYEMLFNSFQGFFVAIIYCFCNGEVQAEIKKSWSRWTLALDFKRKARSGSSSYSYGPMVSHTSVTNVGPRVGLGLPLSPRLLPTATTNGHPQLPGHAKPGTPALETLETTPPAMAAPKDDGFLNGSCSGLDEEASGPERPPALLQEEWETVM
Method: PTHR-delNt is a derivative of the human PTHR that is deleted for most (Ala^24-Arg^181) of the amino-terminal extracellular domain (Shimizu, M., et al. (2001) Endocrinology 142:3068-3074). This PTHR construct was expressed in COS-7 cells via transient DNA transfection. For cAMP assays, the cells were transfected in 24-well plates using 0.2 μg of plasmid DNA and 0.6 μl of Fugene-6 reagent (Roche Diagnostics, Indianapolis Ind.) per well, and assays were performed on the intact cells three to four days after transfection. For binding assays, cell membranes were prepared from transfected COS-7 cells. To increase the maximal binding of ^125I-[Aib^1,3,M]PTH(1-15)NH2 to PTHR-delNt in these membranes, the cells were cotransfected with a negative dominant mutant Gαs protein (Gαs^ND). This mutant Gαs subunit is thought to couple to cognate receptors, and thus stabilize high affinity receptor conformations, more efficiently than does wild-type Gαs, without increasing basal cAMP levels (Berlot, C. H. (2002) J Biol Chem 277:21080-5). A precursor of this mutant Gαs, Gαs(α3β5), was recently used to increase binding of ^125I-[Aib^1,3,M]PTH(1-15)NH2 to PTHR-delNt in COS-7 cell membranes (Dean, T., (2006) Mol Endocrinol 20:931-942). Gαs^ND, which contains the same five amino acid replacement of corresponding Gαi residues in the α3β5 loop as Gαs(α3β5), plus the point mutations of Gly^226 to Ala, which increases affinity for Gβ/γ, and Ala^366 to Ser, which decreases affinity for GDP, yields approximately two-fold higher levels of specific binding of ^125I-[Aib^1,3,M]PTH(1-15)NH2 than does Gαs(α3β5) (data not shown). For the current membrane preparations, COS-7 cells were co-transfected in six-well plates using 1 μg of each plasmid DNA encoding PTHR-delNt and Gαs^ND, and 6 μl of Fugene-6 reagent (Roche Diagnostics, Indianapolis Ind.) per well. Cells were harvested three days after transfection, and membranes were prepared as described (Dean, T., et al. (2006) Mol Endocrinol 20:931-942).
Receptor binding—Binding to the wild-type human PTHR in intact HKRK-B7 cells and ROS 17/2.8 cells was assessed using ^125I-PTH(1-34) as a tracer radioligand, as described (Shimizu, M., (2001) Endocrinology 142:3068-3074). In brief, the cells in 24-well plates (about 500,000 cells per well) were incubated in binding buffer containing radioligand (about 100,000 cpm per well) with or without unlabeled peptide ligand (3×10^−9 to 1×10^−5 M) for four hours at 15° C. The binding mixture was then removed by aspiration, the cells were rinsed three times with binding buffer, lysed in 1 M NaOH, and the entire lysate was counted for gamma-irradiation in a gamma counter. Binding to PTHR-delNt in COS-7 cell membranes was assessed in 96-well, vacuum filtration plates (Multiscreen-Durapore HV, […] membranes, Millipore Corp., Millford, Mass.) using ^125I-[Aib^1,3,M]PTH(1-15)NH2 as a tracer radioligand, as described (Dean, T., (2006) Mol Endocrinol 20:931-942). In brief, cell membranes (20 μg/well) were incubated in membrane binding buffer containing radioligand (30,000 cpm/well) with or without unlabeled peptide ligand (3×10^−9 to 1×10^−5 M) for 90 minutes at 21° C. The plates were then subject to rapid vacuum filtration, the filters were washed once with buffer, detached from the plate and counted for gamma-irradiation in a gamma counter. Non-specific binding was defined as the binding observed in the presence of 1×10^−6 M PTH(1-31)NH2 for HKRK-B7 and ROS 17/2.8 cells, and 1×10^−6 M [Aib^1,3,M]PTH(1-15)NH2 for PTHR-delNt. Specifically bound radioactivity was calculated as a percentage of the radioactivity specifically bound in the absence of competing ligand. […]

CC[C@H](C)[C@H](NC(=O)[C@H](CCC(=O)O)NC(=O)[C@H](CO)NC(=O)[C@@H](NC(=O)[C@H](C)N)C(C)C)C(=O)N[C@@H](CCC(N)=O)C(=O)N[C@@H](CC(C)C)C(=O)N[C@@H](CCSC)C(=O)N[C@@H](Cc1c[nH]cn1)C(=O)N[C@@H](CC(N)=O)C(=O)N[C@@H](CC(C)C)C(=O)NCC(=O)N[C@@H](CCCCN)C(=O)N[C@@H](Cc1c[nH]cn1)C(=O)N[C@@H](CC(C)C)C(=O)N[C@@H](CC(N)=O)C(=O)N[C@@H](CO)C(=O)N[C@@H](CCSC)C(=O)N[C@@H](CCCNC(=N)N)C(=O)N[C@@H](CCCNC(=N)N)C(=O)N[C@H](C(=O)N[C@@H](CC1CCCCC1)C(=O)N[C@@H](Cc1c[nH]c2ccccc12)C(=O)N[C@@H](CC(C)C)C(=O)N[C@@H](CCCNC(=N)N)C(=O)N[C@@H](CCCCN)C(=O)N[C@@H](CCCCN)C(=O)N[C@@H](CC(C)C)C(=O)N[C@@H](CCC(N)=O)C(=O)N[C@@H](CC(=O)O)C(=O)N[C@H](C(N)=O)C(C)C)C(C)C [Glu^22→Cha] (H-AVSEIQLMHNLGKHLNSMRRV[Cha]WLRKKLQDV-NH2; N-terminus assumed)
CD helical residues [1]: 8 | IC50 [2]: 126 ± 45 nM

CC[C@H](C)[C@H](NC(=O)[C@H](CCC(=O)O)NC(=O)[C@H](CO)NC(=O)[C@@H](NC(=O)[C@H](C)N)C(C)C)C(=O)N[C@@H](CCC(N)=O)C(=O)N[C@@H](CC(C)C)C(=O)N[C@@H](CCSC)C(=O)N[C@@H](Cc1c[nH]cn1)C(=O)N[C@@H](CC(N)=O)C(=O)N[C@@H](CC(C)C)C(=O)NCC(=O)N[C@@H](CCCCN)C(=O)N[C@@H](Cc1c[nH]cn1)C(=O)N[C@@H](CC(C)C)C(=O)N[C@@H](CC(N)=O)C(=O)N[C@@H](CO)C(=O)N[C@@H](CCSC)C(=O)N[C@@H](CCCNC(=N)N)C(=O)N[C@@H](CCCNC(=N)N)C(=O)N[C@H](C(=O)N[C@@H](CCC(=O)O)C(=O)N[C@@H](Cc1c[nH]c2ccccc12)C(=O)N[C@@H](CC1CCCCC1)C(=O)N[C@@H](CCCNC(=N)N)C(=O)N[C@@H](CCCCN)C(=O)N[C@@H](CCCCN)C(=O)N[C@@H](CC(C)C)C(=O)N[C@@H](CCC(N)=O)C(=O)N[C@@H](CC(=O)O)C(=O)N[C@H](C(N)=O)C(C)C)C(C)C [Leu^24→Cha] (H-AVSEIQLMHNLGKHLNSMRRVEW[Cha]RKKLQDV-NH2; N-terminus assumed)
CD helical residues [1]: 9 | effect on binding to PTHR-delNt (in words) ([2]; COS-7 membranes): little or no effect on binding to PTHR-delNt | reduction (alteration) of binding affinity for PTHR-delNt relative to parent peptide ([2]; COS-7 membranes, versus the respective parent peptide): three-fold or less | IC50 [2]: 283 ± 68 nM

CC[C@H](C)[C@H](NC(=O)[C@H](CCC(=O)O)NC(=O)[C@H](CO)NC(=O)[C@@H](NC(=O)[C@H](C)N)C(C)C)C(=O)N[C@@H](CCC(N)=O)C(=O)N[C@@H](CC(C)C)C(=O)N[C@@H](CCSC)C(=O)N[C@@H](Cc1c[nH]cn1)C(=O)N[C@@H](CC(N)=O)C(=O)N[C@@H](CC(C)C)C(=O)NCC(=O)N[C@@H](CCCCN)C(=O)N[C@@H](Cc1c[nH]cn1)C(=O)N[C@@H](CC(C)C)C(=O)N[C@@H](CC(N)=O)C(=O)N[C@@H](CO)C(=O)N[C@@H](CCSC)C(=O)N[C@@H](CCCNC(=N)N)C(=O)N[C@@H](CCCNC(=N)N)C(=O)N[C@H](C(=O)N[C@@H](CCC(=O)O)C(=O)N[C@@H](Cc1c[nH]c2ccccc12)C(=O)N[C@@H](CC(C)C)C(=O)N[C@@H](CCCNC(=N)N)C(=O)N[C@@H](CCCCN)C(=O)N[C@@H](CCCCN)C(=O)N[C@@H](CC1CCCCC1)C(=O)N[C@@H](CCC(N)=O)C(=O)N[C@@H](CC(=O)O)C(=O)N[C@H](C(N)=O)C(C)C)C(C)C [Leu^28→Cha] (H-AVSEIQLMHNLGKHLNSMRRVEWLRKK[Cha]QDV-NH2; N-terminus assumed)
CD helical residues [1]: 8 | IC50 [2]: 226 ± 39 nM
